{"source": "patent US20100040710A1", "about": "“Stimulation of the synthesis and of the activity of an isoform of lysyl oxidase-like LOXL for stimulating the formation of elastic fibers” (BASF Beauty Care Solutions France SAS, priority 2003, published 2010)", "assay_type_in_all_cases": "cell-based, human", "key": {"elastin (Eln) mRNA": {"tested_on": "elastin (Eln) mRNA", "assay": "Screening of active principles by qualitative RT-PCR: elastin mRNA expression in fibroblasts", "details": "actives at 1% (v/v), 24 hours, fibroblasts of the abdomen of mature age adult (donor), mRNA vs actin and negative control", "protocol": "(§1) The active principles were tested at 1% (v/v) on fibroblasts of normal human skin (originating from the foreskin of the infant or originating from the adult). The culture was carried out, e.g. in a monolayer on 24-well culture plates, in a defined medium without serum (Fibroblast Basal Medium). The cells were sown, e.g. at 40,000 per cm^2. At the confluence, the cells are placed in contact with the actives advantageously for 24 hours. In parallel, a non-treated control (medium alone) and three positive controls (TGF-β at 1 ng/ml, IL-1α at […] and Phytokine® (Coletica, Lyons, France) at 2% (v/v)) are advantageously carried out, e.g. on the same culture plate.\n(§2) The TGF-β at 1 ng/ml and the IL-1α at 50 pg/ml were tested beforehand and the stimulation of the synthesis of elastin mRNA induced by these two cytokines at these concentrations was verified by an analysis of the mRNAs, e.g. by quantitative RT-PCR (×10 for TGF-β and x6 for IL-1 alpha). After the time of placing the actives in contact with the cells, e.g. 24 hours, the media are removed and the cells are preserved e.g. by dry freezing at −80° C. after a rinsing in phosphate buffer pH 7.4. The total RNAs are extracted e.g. with the aid of an extraction kit of 96 wells on silica columns and were determined on a 96-well spectrophotometer at 260 nm (purity indicator: protein determination at 280 nm). The RNAs are diluted e.g. to 5 ng/μl. The qualitative RT-PCR in 1 step is carried out e.g. on 50 ng of initial RNA on a 96-well plate, on the genes of actin, elastin, of LOX and of LOXL. The specific primers of each gene are used e.g. at 0.5 μM: […]\n(§3) The amplification parameters were advantageously the following 48° C., 30 min; 94° C., 2 min; (94° C., 30 seconds; 60° C., 30 seconds; 68° C., 30 seconds) 28 cycles for actin, 30 cycles for LOXL, 32 cycles for LOX, or 34 cycles for elastin; 68° C., 10 min; 14° C., infinity. […] The photographs of the gels were analyzed by image analysis and quantification of the intensity of the bands (Phoretix1D, France). […]"}, "LOXL mRNA [1]": {"tested_on": "LOXL mRNA", "assay": "Screening of active principles by qualitative RT-PCR: LOXL mRNA expression in fibroblasts", "details": "actives at 1% (v/v), 24 hours, fibroblasts of the abdomen of mature age adult (donor), mRNA vs actin and negative control", "protocol": "as §1, §2, §3"}, "LOX mRNA [2]": {"tested_on": "LOX mRNA", "assay": "Screening of active principles by qualitative RT-PCR: LOX mRNA expression in fibroblasts", "details": "actives at 1% (v/v), 24 hours, fibroblasts of the abdomen of mature age adult (donor), mRNA vs actin and negative control", "protocol": "as §1, §2, §3"}, "LOXL mRNA [3]": {"tested_on": "LOXL mRNA", "assay": "Real time RT-PCR effectiveness study: LOXL mRNA in adult fibroblasts", "details": "24 hours, adult abdomen fibroblasts (donor)", "protocol": "(§4) […] The culture was carried out e.g. in monolayer in 24-well plates, in a defined medium without serum (Fibroblast Basal Medium). The cells are sown e.g. at 40,000 per cm^2. After the time of placing the actives in contact with the cells (24 hours), the media were removed and the cells were preserved e.g. by dry freezing at −80° C. after a rinsing with phosphate buffer at pH 7.4. At the end of experimentation, the content of mRNA of elastin, of LOXL and of actin is evaluated by an mRNA analysis technique, e.g. by real time RT-PCR. For this, the couples of primers enabling the amplification of specific fragments of these genes are those described above (Example 10).\n(§5) After extraction e.g. with the aid of an extraction kit in 96-wells on silica columns and determination on a 96-well spectrophotometer at 260 nm, the RNAs are diluted e.g. to 5 ng/μl. The RT-PCR reactions ([…]) were carried out by quantitative real time RT-PCR with the aid of the “Opticon” system (MJ Research). Advantageously, the reaction mixture (50 μl) introduced into the wells was the following, for each sample: • 10 μl of RNA at a concentration of 5 ng/μl, • The specific primers of the various labels sought after, • Reaction mixture (Qiagen−25 μl 2×QuantiTect SYBR Green RT-PCR master mix containing 5 mM MgCl2+0.5 μl QuantITect RT mix), the label SYBR Green I inserting in the DNA double strands during the elongation step. The RT-PCR Conditions were Advantageously the Following: Reverse Transcription: 30 minutes at 50° C., then 15 minutes at 95° C., PCR reactions: [15 seconds at 94° C., 30 seconds at 60° C. and 30 seconds at 72° C.], 50 cycles.\n(§6) The absence of contamination and the purity of the amplified products were verified e.g. via the fusion curves of the amplified PCR products. The products presenting a double peak or an abnormal fusion temperature were eliminated.\n(§7) The incorporation of fluorescence in the amplified DNA was evaluated continuously during the PCR cycles. This system enabled obtaining curves of fluorescence measurement as a function of the number of PCR cycles and thus enabled evaluating a relative amount of amplified DNA.\n(§8) In order to take account of the cell population present, all the results were compared to the <> signal, which was used as housekeeping gene. According to the experimentation, the threshold of measurement of the C(T) (=Cycle Threshold) was fixed for T between 0.05 and 0.01, and then an arbitrary measurement unit is calculated for each gene according to the formula:\n(§9) Sgene<=10^7×(1/2)^C(T)gene<>\n(§10) C (T)gene <> signifying the number of cycles necessary to attain the cycle threshold of 0.01-0.05 of the gene <>.\n(§11) The values of the genes of interest were compared to the <> signal by calculation of the ratio: […]"}, "LOX mRNA [4]": {"tested_on": "LOX mRNA", "assay": "Real time RT-PCR effectiveness study: LOX mRNA in adult fibroblasts", "details": "24 hours, adult abdomen fibroblasts (donor)"}, "elastin mRNA [5]": {"tested_on": "elastin mRNA", "assay": "Real time RT-PCR effectiveness study: elastin mRNA in adult fibroblasts", "details": "24 hours, adult abdomen fibroblasts (donor)", "protocol": "as §4, §5, §6, §7, §8, §9, §10, §11"}, "elastin mRNA [6]": {"tested_on": "elastin mRNA", "assay": "Positive controls: stimulation of elastin mRNA synthesis by quantitative RT-PCR", "details": "1 ng/ml, fold (×)", "protocol": "as §1\nas §2, with “nm).” for “nm). The RNAs are diluted e.g. to 5 ng/μl. The qualitative RT-PCR in 1 step is carried out e.g. on 50 ng of initial RNA on a 96-well plate, on the genes of actin, elastin, of LOX and of LOXL. The specific primers of each gene are used e.g. at 0.5 μM:”"}}, "note": "Marks after values point to notes of the source that are not given here."}
{"compound": "CCCC(=O)OC", "note": "[methyl butyrate]", "values": [{"measurement": "Eln Control multiplied by:", "setting": "elastin (Eln) mRNA", "result": 1.43}, {"measurement": "LOXL Control multiplied by:", "setting": "LOXL mRNA [1]", "result": 3.24}, {"measurement": "LOX Control multiplied by:", "setting": "LOX mRNA [2]", "result": 5.08}, {"measurement": "LOXL Control multiplied by:", "setting": "LOXL mRNA [3]; active at 0.01%", "result": 0.89}, {"measurement": "LOXL Control multiplied by:", "setting": "LOXL mRNA [3]; active at 0.1%", "result": 1.56}, {"measurement": "LOXL Control multiplied by:", "setting": "LOXL mRNA [3]; active at 1%", "result": "2.10*"}, {"measurement": "LOXL Control multiplied by:", "setting": "LOXL mRNA [3]; active at 5%", "result": 0.91}, {"measurement": "LOX Control multiplied by:", "setting": "LOX mRNA [4]; active at 0.01%", "result": 1.04}, {"measurement": "LOX Control multiplied by:", "setting": "LOX mRNA [4]; active at 0.1%", "result": "1.76*"}, {"measurement": "LOX Control multiplied by:", "setting": "LOX mRNA [4]; active at 1%", "result": "2.17*"}, {"measurement": "LOX Control multiplied by:", "setting": "LOX mRNA [4]; active at 5%", "result": 0.91}, {"measurement": "El Control multiplied by:", "setting": "elastin mRNA [5]; active at 0.01%", "result": 0.92}, {"measurement": "El Control multiplied by:", "setting": "elastin mRNA [5]; active at 0.1%", "result": 0.96}, {"measurement": "El Control multiplied by:", "setting": "elastin mRNA [5]; active at 1%", "result": 1.25}, {"measurement": "El Control multiplied by:", "setting": "elastin mRNA [5]; active at 5%", "result": "1.70*"}]}
{"compound": "ethyl hexenoate", "values": [{"measurement": "Eln Control multiplied by:", "setting": "elastin (Eln) mRNA", "result": 1.5}, {"measurement": "LOXL Control multiplied by:", "setting": "LOXL mRNA [1]", "result": 2.33}, {"measurement": "LOX Control multiplied by:", "setting": "LOX mRNA [2]", "result": 3.09}]}
{"compound": "TGF-β", "values": [{"measurement": "stimulation of the synthesis of elastin mRNA", "setting": "elastin mRNA [6]", "result": 10}]}
{"compound": "ethyl decadienoate", "values": [{"measurement": "Eln Control multiplied by:", "setting": "elastin (Eln) mRNA", "result": 2.04}, {"measurement": "LOXL Control multiplied by:", "setting": "LOXL mRNA [1]", "result": 2.32}, {"measurement": "LOX Control multiplied by:", "setting": "LOX mRNA [2]", "result": 3.64}]}
